Values after ≈ are worked out from the molar mass of the structure shown.
Tests used:
[1] = tested on: Mycoplasma hyopneumoniae ST-11 (standard strain); assay: Anti-mycoplasma activity in vitro (MIC, broth dilution), strain ST-11; format: cell-based; details: Mesomycoplasma hyopneumoniae, Mh ST-11; read-out: MIC
Description: (§1) (1) Anti-mycoplasma activity test in vitro
(§2) MIC values of each of Tropolones were measured on the following strains according to the following method.
(b) Mycoplasma hyopneumoniae
Strain: ST-11 (standard strain)
Medium: 850 ml of Hanks' solution supplemented with 0.5% lactoalbumin, 50 ml of 25% yeast, 100 ml of equine serum and 4-6 ml of 0.5% phenol red (pH 7.4-7.6)
(§3) Method: Broth dilution method
Inoculum: Culture which is incubated for 3-4 days and diluted 10 times with the broth if color of the broth becomes yellow then. If it needs over 4 days until color of the broth becomes yellow, it is further subcultured. This is diluted 10 times with the broth to give inoculum.
Assay is done in the same manner as in the above (a).

[2] = tested on: Mycoplasma gallisepticum S6 (standard strain); assay: Anti-mycoplasma activity in vitro (MIC, broth dilution), strain S6; format: cell-based; details: Mycoplasmoides gallisepticum, 168 h, Mg S6, 37° C., 7 days; read-out: MIC
Description: as §1, §2
(§4) (a) Mycoplasma gallisepticum
(§5) Medium: Chick PPLO broth supplemented with 20% equine serum (Eiken Kagaku Co., Ltd.)
as §3
(§6) Inoculum: Culture incubated at 37° C. for 24-48 hr which is diluted with broth to 10^6 CCU/ml immediately before the use.
(§7) To 1.6 ml of the broth is added 0.2 ml of an agent which has been subjected to 2-fold dilution and then added 0.2 ml of inoculum, which is incubated at 37° C. for 7 days.

[3] = tested on: Mycoplasma gallisepticum T-7-T (wild strain, tylosin-resistant); assay: Anti-mycoplasma activity in vitro (MIC, broth dilution), strain T-7-T; format: cell-based; details: Mycoplasmoides gallisepticum, 168 h, Mg T-7-T, 37° C., 7 days; read-out: MIC
Description: as §1, §2, §4
(§8) T-7-T (wild strain, tylosin-resistant)
as §5, §3, §6, §7

[4] = tested on: Mycoplasma gallisepticum T-7-T (wild strain, tylosin-resistant); assay: Mycoplasma gallisepticum air-sac infection method in chicken, strain T-7-T; format: in vivo, Mycoplasma gallisepticum; SPF chicken (white leghorn);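 for Index of Isolation: index = (P×1 + Q×2 + R×3)/S with range 0 to 6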
Description: (§9) (2) Test of Effectiveness Mycoplasma gallisepticum air-sac infection method
as §8
(§10) Inoculation: To the right air-sac of 9 days old SPF chicken (a white leghorn) which has abstained from water and feed one day before is inoculated 0.20-0.25 ml/chicken of fresh mycoplasma culture incubated for 24-48 hr and diluted with broth (usually 100 times). The concentration in Table 2 is shown in a unit of mg/ml.
(§11) Medium: Chick PPLO broth supplemented with 15% equine serum (Eiken Kagaku Co., Ltd.)
(§12) Administration: A compound of this invention dissolved or suspended in the following solution is orally and forcibly administered once by a cannula immediately after the infection.
(§13) Anatomization and Isolation of Microorganism: The chickens are anatomized 5 days after the infection, and the right and left air sacs are investigated whether they are attacked with a disease or not. The change caused by the disease is represented in four degrees; -: no change, +: slight, ++: medium and +++: serious. Microorganism is isolated from the right and left air-sacs and the trachea by using a sterilized applicator.
(§14) Judgement: Judgement is done through an index of an air-sac disease and an index of a microorganism-isolation.
(§15) Index of an air-sac-disease: First, indexes in the right and left air-sacs are separately calculated according to the following formula;
(§16) {degree of disease (0-3)×chickens}/anatomized chickens
(§17) and the index is calculated by the following formula;
(§18) (index of right air-sac)×1+(index of left air-sac)×2
(§19) Index of a microorganism isolation:
(§20) P: chickens from the right air-sac of which microorganism is isolated,
(§21) Q: chickens from the trachea of which microorganism is isolated,
(§22) R: chickens from the left air-sac of which microorganism is isolated, and
(§23) S: chickens investigated.

[5] = tested on: Mycoplasma gallisepticum MR-1 (wild strain, tylosin-resistant); assay: Mycoplasma gallisepticum air-sac infection method in chicken, strain MR-1;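 for Index of Isolation: index = (P×1 + Q×2 + R×3)/S with range 0 to 6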; format: in vivo, Mycoplasma gallisepticum; SPF chicken (white leghorn); details: 100 mg/kg × once oral, 10 mg/ml sol. b
Description: as §9
MR-1 (wild strain, tylosin-resistant)
as §10, §11, §12, §13, §14, §15, §16, §17, §18, §19, §20, §21, §22, §23

[6] = 200 mg/kg × once oral, 20 mg/ml DW, inoculum 1.9 × 10^5
[7] = 200 mg/kg × once oral, 20 mg/ml DW, inoculum 1.9 × 10^5, range 0-6.0
[8] = 200 mg/kg × once oral, 20 mg/ml DW, inoculum 1.9 × 10^5, range 0-9.0
[9] = 100 mg/kg × once oral, 10 mg/ml sol. b, inoculum 10^2

CC(C)(C)OC(=O)COc1cccccc1=O [Compound 18, O-(tert-Butyloxycarbonylmethyl)tropolone]
MIC [1]: > 25 µg/mL
MIC [2]: > 25 µg/mL

CCOC(=O)C(C)Oc1cccccc1=O (centres unmarked) [Compound 20, O-(1-Ethoxycarbonylethyl)tropolone]
MIC [1]: > 25 µg/mL
MIC [2]: > 25 µg/mL
MIC [3]: > 25 µg/mL

O=C(COc1cccccc1=O)c1ccccc1 [Compound 21, O-(Benzoylmethyl)tropolone]
MIC [1]: 0.2 µg/mL (≈ 0.832 µM)
MIC [2]: 0.78 µg/mL (≈ 3.25 µM)

C=CCOc1cccccc1=O [Compound 22, O-Allyltropolone]
MIC [1]: 25 µg/mL (≈ 154 µM)
MIC [2]: > 25 µg/mL

C[C@H]1c2cccc(O)c2C(=O)C2=C(O)[C@]3(O)C(=O)C(C(N)=O)=C(O)[C@@H](N(C)C)[C@@H]3[C@@H](O)[C@@H]21 [doxycycline, reference compound]
Change of air-sac, left: + (chickens) [4, 6]: 2
Change of air-sac, left: ++ (chickens) [4, 6]: 1
Change of air-sac, left: +++ (chickens) [4, 6]: 0
Change of air-sac, left: - (chickens) [4, 6]: 2
Change of air-sac, right: + (chickens) [4, 6]: 0
Change of air-sac, right: ++ (chickens) [4, 6]: 4
Change of air-sac, right: +++ (chickens) [4, 6]: 0
Change of air-sac, right: - (chickens) [4, 6]: 1
Isolation, L (left air-sac) [4, 6]: 5
Isolation, R (right air-sac) [4, 6]: 5
Isolation, T (trachea) [4, 6]: 5
Mycoplasma Isolated Chickens [4, 6]: 5
Index of Isolation [4, 7]: 6.0
Index of Disease [4, 8]: 3.2

CC[C@H]1OC(=O)C[C@@H](O)[C@H](C)[C@@H](O[C@@H]2O[C@H](C)[C@@H](O[C@H]3C[C@@](C)(O)[C@@H](O)[C@H](C)O3)[C@H](N(C)C)[C@H]2O)[C@@H](CC=O)C[C@@H](C)C(=O)/C=C/C(C)=C/[C@@H]1CO[C@@H]1O[C@H](C)[C@@H](O)[C@@H](OC)[C@H]1OC [tylosin, reference compound]
Change of air-sac, left: + (chickens) ([5]; inoculum 0.3 × 10^5): 1
Change of air-sac, left: ++ (chickens) ([5]; inoculum 0.3 × 10^5): 0
Change of air-sac, left: +++ (chickens) ([5]; inoculum 0.3 × 10^5): 0
Change of air-sac, left: - (chickens) ([5]; inoculum 0.3 × 10^5): 5
Change of air-sac, right: + (chickens) ([5]; inoculum 0.3 × 10^5): 0
Change of air-sac, right: ++ (chickens) ([5]; inoculum 0.3 × 10^5): 3
Change of air-sac, right: +++ (chickens) ([5]; inoculum 0.3 × 10^5): 3
Change of air-sac, right: - (chickens) ([5]; inoculum 0.3 × 10^5): 0
Isolation, L (left air-sac) ([5]; inoculum 0.3 × 10^5): 6
Isolation, R (right air-sac) ([5]; inoculum 0.3 × 10^5): 6
Isolation, T (trachea) ([5]; inoculum 0.3 × 10^5): 6
Mycoplasma Isolated Chickens ([5]; inoculum 0.3 × 10^5): 6
Index of Isolation ([5]; inoculum 0.3 × 10^5, range 0-6.0): 6.0
Index of Disease ([5]; inoculum 0.3 × 10^5, range 0-9.0): 2.8
Change of air-sac, left: + (chickens) [4, 9]: 0
Change of air-sac, left: ++ (chickens) [4, 9]: 2
Change of air-sac, left: +++ (chickens) [4, 9]: 0
Change of air-sac, left: - (chickens) [4, 9]: 6
Change of air-sac, right: + (chickens) [4, 9]: 1
Change of air-sac, right: ++ (chickens) [4, 9]: 5
Change of air-sac, right: +++ (chickens) [4, 9]: 1
Change of air-sac, right: - (chickens) [4, 9]: 1
Isolation, L (left air-sac) [4, 9]: 8
Isolation, R (right air-sac) [4, 9]: 7
Isolation, T (trachea) [4, 9]: 8
Mycoplasma Isolated Chickens [4, 9]: 8
Index of Isolation ([4]; 100 mg/kg × once oral, 10 mg/ml sol. b, inoculum 10^2, range 0-6.0): 5.60
Index of Disease ([4]; 100 mg/kg × once oral, 10 mg/ml sol. b, inoculum 10^2, range 0-9.0): 2.80
Change of air-sac, left: + (chickens) [4, 6]: 0
Change of air-sac, left: ++ (chickens) [4, 6]: 0
Change of air-sac, left: +++ (chickens) [4, 6]: 0
Change of air-sac, left: - (chickens) [4, 6]: 5
Change of air-sac, right: + (chickens) [4, 6]: 0
Change of air-sac, right: ++ (chickens) [4, 6]: 1
Change of air-sac, right: +++ (chickens) [4, 6]: 4
Change of air-sac, right: - (chickens) [4, 6]: 0
Isolation, L (left air-sac) [4, 6]: 4
Isolation, R (right air-sac) [4, 6]: 5
Isolation, T (trachea) [4, 6]: 5
Mycoplasma Isolated Chickens [4, 6]: 5
Index of Isolation [4, 7]: 5.4
Index of Disease [4, 8]: 2.8

From US4950686A, “Anti-mycoplasma agent” (Shionogi & Co., Ltd., priority 1986, dated 1990)
